Results published in patent US20090004683A1, “Indicator Agent for Noninflammatory Stress Response and Use Thereof” (priority 2004, published 2009).

Columns and labels:
Format in all cases: in vivo, mouse
ACTH = assay: Blood ACTH after IL-18 administration; conditions: C57B/6 mice, 1.5 μg IL-18 intravenously; FIG. 13A
Experimental: (§1) 1.5 μg of IL-18 prepared by genetic recombination technology was intravenously injected to C57B/6 mice, and thereafter ACTH, FSH and LH levels in blood were examined. […] FIGS. 13B and 13C show FSH and LH levels in plasma collected from mice 1 hour after IL-18 administration. It was shown that the concentrations of FSH and LH in plasma rose with the administration of IL-18.

LH = assay: Plasma LH after IL-18 administration; conditions: C57B/6 mice, 1.5 μg IL-18 intravenously, 1 hour after administration; FIG. 13C
Experimental: as §1

FSH = assay: Plasma FSH after IL-18 administration; conditions: C57B/6 mice, 1.5 μg IL-18 intravenously, 1 hour after administration; FIG. 13B
Experimental: as §1

IL-18: IL-18 prepared by genetic recombination technology
rose: blood ACTH concentration (ACTH) | concentration of LH in plasma (LH) | concentration of FSH in plasma (FSH)
